ChEMBL document CHEMBL1153464

Experiments:
[1] = target: Macrophage-stimulating protein receptor (Homo sapiens) (UniProt Q04912); assay: Inhibition of MST1R at 10 uM by HotSpot assay relative to control
[2] = target: Dual specificity mitogen-activated protein kinase kinase 1 (Homo sapiens) (UniProt Q02750); assay: Inhibition of MEK1 at 10 uM by HotSpot assay relative to control
[3] = target: Insulin receptor (Homo sapiens) (UniProt P06213); assay: Inhibition of IR at 10 uM by HotSpot assay relative to control
[4] = target: Serine/threonine-protein kinase Chk1 (Homo sapiens) (UniProt O14757); assay: Inhibition of CHEK1 at 10 uM by HotSpot assay relative to control
[5] = target: Tyrosine-protein kinase JAK1 (Homo sapiens) (UniProt P23458); assay: Inhibition of JAK1 at 10 uM by HotSpot assay relative to control
[6] = target: Homeodomain-interacting protein kinase 1 (Homo sapiens) (UniProt Q86Z02); assay: Inhibition of HIPK1 at 10 uM by HotSpot assay relative to control
[7] = target: Proto-oncogene tyrosine-protein kinase Src (Homo sapiens) (UniProt P12931); assay: Inhibition of c-Src at 10 uM by HotSpot assay relative to control
[8] = target: Tyrosine-protein kinase Yes (Homo sapiens) (UniProt P07947); assay: Inhibition of YES at 10 uM by HotSpot assay relative to control
Sequence of Tyrosine-protein kinase Yes (Homo sapiens) (P07947 2-543 limits assumed): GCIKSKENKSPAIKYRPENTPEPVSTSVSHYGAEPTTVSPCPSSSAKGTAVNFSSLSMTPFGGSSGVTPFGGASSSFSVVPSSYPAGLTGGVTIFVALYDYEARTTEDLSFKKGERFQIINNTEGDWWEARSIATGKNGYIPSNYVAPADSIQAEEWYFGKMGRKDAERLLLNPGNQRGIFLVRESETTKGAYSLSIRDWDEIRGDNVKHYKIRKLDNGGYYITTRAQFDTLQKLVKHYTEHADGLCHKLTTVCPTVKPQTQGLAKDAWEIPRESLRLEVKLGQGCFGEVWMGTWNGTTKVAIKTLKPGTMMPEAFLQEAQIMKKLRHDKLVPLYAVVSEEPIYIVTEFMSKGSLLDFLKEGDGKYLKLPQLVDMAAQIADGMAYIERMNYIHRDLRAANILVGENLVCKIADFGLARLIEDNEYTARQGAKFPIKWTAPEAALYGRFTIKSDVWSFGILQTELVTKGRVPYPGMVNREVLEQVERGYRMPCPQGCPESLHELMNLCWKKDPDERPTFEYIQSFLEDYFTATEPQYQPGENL

[9] = target: Muscle, skeletal receptor tyrosine-protein kinase (Homo sapiens) (UniProt O15146); assay: Inhibition of MUSK at 10 uM by HotSpot assay relative to control
[10] = target: Mitogen-activated protein kinase 8 (Homo sapiens) (UniProt P45983); assay: Inhibition of JNK1-alpha-1 at 10 uM by HotSpot assay relative to control
Sequence of Mitogen-activated protein kinase 8 (Homo sapiens) (P45983 whole entry): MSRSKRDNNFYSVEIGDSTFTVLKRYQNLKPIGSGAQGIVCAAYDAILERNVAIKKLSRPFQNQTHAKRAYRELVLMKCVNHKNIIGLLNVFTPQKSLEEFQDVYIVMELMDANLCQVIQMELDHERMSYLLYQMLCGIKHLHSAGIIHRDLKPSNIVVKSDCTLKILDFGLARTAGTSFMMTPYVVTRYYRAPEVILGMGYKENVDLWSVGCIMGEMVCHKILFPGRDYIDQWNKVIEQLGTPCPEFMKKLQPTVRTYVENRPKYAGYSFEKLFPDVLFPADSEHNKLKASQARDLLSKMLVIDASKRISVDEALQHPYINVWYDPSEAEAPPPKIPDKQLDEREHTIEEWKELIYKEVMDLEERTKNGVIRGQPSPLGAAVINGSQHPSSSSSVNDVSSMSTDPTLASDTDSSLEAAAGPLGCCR

[11] = target: Vascular endothelial growth factor receptor 1 (Homo sapiens) (UniProt P17948); assay: Inhibition of FLT1 at 10 uM by HotSpot assay relative to control
[12] = target: Protein kinase C alpha type (Homo sapiens) (UniProt P17252); assay: Inhibition of PKCalpha at 10 uM by HotSpot assay relative to control
[13] = target: Death-associated protein kinase 1 (Homo sapiens) (UniProt P53355); assay: Inhibition of DAPK1 at 10 uM by HotSpot assay relative to control
[14] = target: Cyclin-dependent kinase 1/cyclin B1 (Homo sapiens) (UniProt P06493+P14635); assay: Inhibition of CDK1/Cyclin B at 10 uM by HotSpot assay relative to control; type: protein-complex assay
[15] = target: Tyrosine-protein kinase SYK (Homo sapiens) (UniProt P43405); assay: Inhibition of SYK at 10 uM by HotSpot assay relative to control
[16] = target: Serine/threonine-protein kinase 26 (Homo sapiens) (UniProt Q9P289); assay: Inhibition of MST4 at 10 uM by HotSpot assay relative to control
[17] = target: Aurora kinase A (Homo sapiens) (UniProt O14965); assay: Inhibition of Aurora-A at 10 uM by HotSpot assay relative to control
[18] = target: Rho-associated protein kinase 1 (Homo sapiens) (UniProt Q13464); assay: Inhibition of ROCK-I at 10 uM by HotSpot assay relative to control
[19] = target: Serine/threonine-protein kinase PAK 4 (Homo sapiens) (UniProt O96013); assay: Inhibition of PAK4 at 10 uM by HotSpot assay relative to control
[20] = target: Tyrosine-protein kinase Lyn (Homo sapiens) (UniProt P07948); assay: Inhibition of LYN at 10 uM by HotSpot assay relative to control
[21] = target: Mitogen-activated protein kinase 14 (Homo sapiens) (UniProt Q16539); assay: Inhibition of p38-alpha at 10 uM by HotSpot assay relative to control
[22] = target: Fibroblast growth factor receptor 1 (Homo sapiens) (UniProt P11362); assay: Inhibition of FGFR1 at 10 uM by HotSpot assay relative to control
[23] = target: Mast/stem cell growth factor receptor Kit (Homo sapiens) (UniProt P10721); assay: Inhibition of c-kit at 10 uM by HotSpot assay relative to control
[24] = target: Epidermal growth factor receptor (Homo sapiens) (UniProt P00533); assay: Inhibition of EGFR at 10 uM by HotSpot assay relative to control
[25] = target: Tyrosine-protein kinase Lck (Homo sapiens) (UniProt P06239); assay: Inhibition of LCK at 10 uM by HotSpot assay relative to control
[26] = target: Serine/threonine-protein kinase pim-1 (Homo sapiens) (UniProt P11309); assay: Inhibition of PIM1 at 10 uM by HotSpot assay relative to control
Sequence of Serine/threonine-protein kinase pim-1 (Homo sapiens) (P11309 whole entry, looked up): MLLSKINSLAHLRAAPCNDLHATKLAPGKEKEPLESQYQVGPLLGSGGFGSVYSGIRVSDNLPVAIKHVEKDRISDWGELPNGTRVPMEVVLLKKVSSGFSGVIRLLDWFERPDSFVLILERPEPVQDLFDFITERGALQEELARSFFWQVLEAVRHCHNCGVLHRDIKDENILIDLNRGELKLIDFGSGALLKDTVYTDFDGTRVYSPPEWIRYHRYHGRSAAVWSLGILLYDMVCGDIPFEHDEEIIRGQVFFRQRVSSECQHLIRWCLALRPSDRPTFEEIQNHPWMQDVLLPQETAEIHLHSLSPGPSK

[27] = target: Focal adhesion kinase 1 (PTK2/FAK) (Homo sapiens) (UniProt Q05397); assay: Inhibition of PTK2 at 10 uM by HotSpot assay relative to control
[28] = target: Vascular endothelial growth factor receptor 2 (Homo sapiens) (UniProt P35968); assay: Inhibition of VEGFR2 at 10 uM by HotSpot assay relative to control
Sequence of Vascular endothelial growth factor receptor 2 (Homo sapiens) (P35968 whole entry): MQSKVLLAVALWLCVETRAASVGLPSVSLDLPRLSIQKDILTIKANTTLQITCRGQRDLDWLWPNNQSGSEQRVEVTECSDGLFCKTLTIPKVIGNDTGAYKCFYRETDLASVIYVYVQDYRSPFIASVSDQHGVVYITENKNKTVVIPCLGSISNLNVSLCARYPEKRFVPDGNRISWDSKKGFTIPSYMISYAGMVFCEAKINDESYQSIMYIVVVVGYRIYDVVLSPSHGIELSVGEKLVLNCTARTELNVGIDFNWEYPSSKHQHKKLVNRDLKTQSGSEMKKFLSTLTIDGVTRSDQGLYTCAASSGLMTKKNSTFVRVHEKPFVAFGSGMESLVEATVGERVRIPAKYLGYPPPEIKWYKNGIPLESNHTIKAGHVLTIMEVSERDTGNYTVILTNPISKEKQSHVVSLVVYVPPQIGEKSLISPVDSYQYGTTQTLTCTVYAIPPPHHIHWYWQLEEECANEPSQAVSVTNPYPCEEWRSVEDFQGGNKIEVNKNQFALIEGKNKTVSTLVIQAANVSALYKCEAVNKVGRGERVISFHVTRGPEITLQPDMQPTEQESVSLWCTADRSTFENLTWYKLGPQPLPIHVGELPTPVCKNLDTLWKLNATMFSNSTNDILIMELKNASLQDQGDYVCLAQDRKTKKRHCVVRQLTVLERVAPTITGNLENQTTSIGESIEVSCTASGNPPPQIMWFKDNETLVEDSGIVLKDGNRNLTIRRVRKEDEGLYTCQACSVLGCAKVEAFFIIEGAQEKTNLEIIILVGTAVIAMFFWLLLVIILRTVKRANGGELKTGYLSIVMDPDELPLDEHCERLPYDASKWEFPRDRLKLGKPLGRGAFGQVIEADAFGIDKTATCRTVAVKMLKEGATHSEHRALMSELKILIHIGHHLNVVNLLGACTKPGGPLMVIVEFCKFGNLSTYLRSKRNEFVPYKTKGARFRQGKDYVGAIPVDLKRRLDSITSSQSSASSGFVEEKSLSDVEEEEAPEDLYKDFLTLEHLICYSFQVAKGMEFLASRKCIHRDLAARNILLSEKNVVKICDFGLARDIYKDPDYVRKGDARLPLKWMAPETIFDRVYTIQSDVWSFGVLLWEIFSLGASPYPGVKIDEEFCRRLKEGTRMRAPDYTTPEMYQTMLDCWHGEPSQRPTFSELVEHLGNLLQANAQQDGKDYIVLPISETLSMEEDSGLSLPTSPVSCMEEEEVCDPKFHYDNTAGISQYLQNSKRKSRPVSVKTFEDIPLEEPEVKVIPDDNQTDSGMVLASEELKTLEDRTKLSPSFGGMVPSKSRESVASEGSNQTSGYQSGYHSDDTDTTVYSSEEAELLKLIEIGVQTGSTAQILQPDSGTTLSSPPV

[29] = system: RAC-alpha serine/threonine-protein kinase (Homo sapiens), P31749 [S473D]; assay: Inhibition of AKT1 dPH, S473D mutant at 10 uM by HotSpot assay relative to control
[30] = target: Serine/threonine-protein kinase PLK1 (Homo sapiens) (UniProt P53350); assay: Inhibition of PLK1 at 10 uM by HotSpot assay relative to control
[31] = target: Serine/threonine-protein kinase B-raf (Homo sapiens) (UniProt P15056); assay: Inhibition of BRAF at 10 uM by HotSpot assay relative to control
[32] = target: RAF proto-oncogene serine/threonine-protein kinase (Homo sapiens) (UniProt P04049); assay: Inhibition of RAF1 at 10 uM by HotSpot assay relative to control
[33] = target: Angiopoietin-1 receptor (Homo sapiens) (UniProt Q02763); assay: Inhibition of TIE2 at 10 uM by HotSpot assay relative to control
[34] = target: DNA-dependent protein kinase catalytic subunit (Homo sapiens) (UniProt P78527); assay: Inhibition of DNA-PK at 10 uM by HotSpot assay relative to control
[35] = target: Proto-oncogene tyrosine-protein kinase ROS (Homo sapiens) (UniProt P08922); assay: Inhibition of ROS1 at 10 uM by HotSpot assay relative to control
[36] = target: Tyrosine-protein kinase ABL1 (Homo sapiens) (UniProt P00519); assay: Inhibition of Abl at 10 uM by HotSpot assay relative to control
[37] = target: Ribosomal protein S6 kinase beta-1 (Homo sapiens) (UniProt P23443); assay: Inhibition of p70S6K at 10 uM by HotSpot assay relative to control
[38] = target: Hepatocyte growth factor receptor (Homo sapiens) (UniProt P08581); assay: Inhibition of c-MET at 10 uM by HotSpot assay relative to control
[39] = target: Ephrin type-A receptor 1 (Homo sapiens) (UniProt P21709); assay: Inhibition of EPHA1 at 10 uM by HotSpot assay relative to control
[40] = target: Inhibitor of nuclear factor kappa-B kinase subunit alpha (Homo sapiens) (UniProt O15111); assay: Inhibition of IKK-alpha at 10 uM by HotSpot assay relative to control
[41] = target: Tyrosine-protein kinase Fgr (Homo sapiens) (UniProt P09769); assay: Inhibition of FGR at 10 uM by HotSpot assay relative to control
[42] = target: Tyrosine-protein kinase Fyn (Homo sapiens) (UniProt P06241); assay: Inhibition of FYN at 10 uM by HotSpot assay relative to control
Sequence of Tyrosine-protein kinase Fyn (Homo sapiens) (P06241 2-537 limits assumed): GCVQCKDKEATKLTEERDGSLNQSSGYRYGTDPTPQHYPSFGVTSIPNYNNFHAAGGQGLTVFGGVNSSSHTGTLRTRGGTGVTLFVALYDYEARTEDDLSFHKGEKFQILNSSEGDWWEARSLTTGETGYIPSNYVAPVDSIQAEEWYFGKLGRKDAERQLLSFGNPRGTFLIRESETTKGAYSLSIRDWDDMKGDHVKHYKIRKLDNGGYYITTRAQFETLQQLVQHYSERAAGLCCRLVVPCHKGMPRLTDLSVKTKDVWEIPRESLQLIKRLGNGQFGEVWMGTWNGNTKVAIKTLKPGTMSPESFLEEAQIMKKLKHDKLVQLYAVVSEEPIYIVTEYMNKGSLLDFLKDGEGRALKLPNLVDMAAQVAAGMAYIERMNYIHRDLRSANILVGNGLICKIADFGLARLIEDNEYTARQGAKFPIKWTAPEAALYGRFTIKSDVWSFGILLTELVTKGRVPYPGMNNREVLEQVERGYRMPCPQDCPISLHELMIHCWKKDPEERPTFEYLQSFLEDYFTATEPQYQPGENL

[43] = target: Proto-oncogene tyrosine-protein kinase receptor Ret (Homo sapiens) (UniProt P07949); assay: Inhibition of RET at 10 uM by HotSpot assay relative to control
[44] = target: High affinity nerve growth factor receptor (Homo sapiens) (UniProt P04629); assay: Inhibition of TRKA at 10 uM by HotSpot assay relative to control
Sequence of High affinity nerve growth factor receptor (Homo sapiens) (P04629 33-796 limits assumed): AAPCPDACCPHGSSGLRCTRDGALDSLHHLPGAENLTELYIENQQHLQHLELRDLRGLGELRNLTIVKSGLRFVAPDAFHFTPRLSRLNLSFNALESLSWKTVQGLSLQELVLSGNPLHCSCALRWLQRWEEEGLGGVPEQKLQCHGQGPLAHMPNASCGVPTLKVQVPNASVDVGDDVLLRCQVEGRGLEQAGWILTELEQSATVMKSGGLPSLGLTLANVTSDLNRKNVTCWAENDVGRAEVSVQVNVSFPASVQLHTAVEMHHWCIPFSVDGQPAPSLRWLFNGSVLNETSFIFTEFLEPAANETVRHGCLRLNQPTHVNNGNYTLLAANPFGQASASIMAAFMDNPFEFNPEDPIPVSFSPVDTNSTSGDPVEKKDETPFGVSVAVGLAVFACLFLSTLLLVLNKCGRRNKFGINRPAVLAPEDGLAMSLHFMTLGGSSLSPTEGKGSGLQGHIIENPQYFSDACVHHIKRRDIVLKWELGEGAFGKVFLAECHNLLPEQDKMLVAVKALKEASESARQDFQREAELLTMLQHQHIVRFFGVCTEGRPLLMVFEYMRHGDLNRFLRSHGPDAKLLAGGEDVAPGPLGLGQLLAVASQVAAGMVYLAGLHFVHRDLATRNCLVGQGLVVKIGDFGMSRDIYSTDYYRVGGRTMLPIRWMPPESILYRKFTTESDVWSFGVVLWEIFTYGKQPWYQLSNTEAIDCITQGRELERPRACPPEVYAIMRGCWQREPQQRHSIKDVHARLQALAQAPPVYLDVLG

[45] = target: Casein kinase I isoform epsilon (Homo sapiens) (UniProt P49674); assay: Inhibition of CK1epsilon at 10 uM by HotSpot assay relative to control
Sequence of Casein kinase I isoform epsilon (Homo sapiens) (P49674 whole entry, looked up, canonical isoform): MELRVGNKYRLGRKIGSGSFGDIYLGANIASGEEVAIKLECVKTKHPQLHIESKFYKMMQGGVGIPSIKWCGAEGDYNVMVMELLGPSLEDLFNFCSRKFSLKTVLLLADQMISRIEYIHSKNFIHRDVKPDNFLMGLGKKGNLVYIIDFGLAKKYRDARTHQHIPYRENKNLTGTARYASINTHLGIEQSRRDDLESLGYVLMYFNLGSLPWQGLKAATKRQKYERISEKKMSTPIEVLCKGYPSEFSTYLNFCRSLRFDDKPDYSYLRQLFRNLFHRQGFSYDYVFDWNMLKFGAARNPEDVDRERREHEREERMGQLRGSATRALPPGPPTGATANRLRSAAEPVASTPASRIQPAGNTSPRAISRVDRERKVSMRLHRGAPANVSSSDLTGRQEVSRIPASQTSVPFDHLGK

## Cc1cc(O)cc(-c2nn(CC#N)cc2-c2cc(NC[C@H](C)O)nc(-c3cccnc3)n2)c1
[1]
  inhibition: 28.8%
[2]
  inhibition: -6.97%
[3]
  inhibition: 7.01%
[4]
  inhibition: 2.36%
[5]
  inhibition: 9.15%
[6]
  inhibition: -3.43%
[7]
  inhibition: 16.2%
[8]
  inhibition: -2.59%
[9]
  inhibition: -0.42%
[10]
  inhibition: 3.83%
[11]
  inhibition: -1.67%
[12]
  inhibition: 9.23%
[13]
  inhibition: -1.17%
[14]
  inhibition: 3.64%
[15]
  inhibition: 8.23%
[16]
  inhibition: -1.54%
[17]
  inhibition: 21.8%
[18]
  inhibition: 11.7%
[19]
  inhibition: 1.37%
[20]
  inhibition: -1.45%
[21]
  inhibition: 5.27%
[22]
  inhibition: -8.05%
[23]
  inhibition: 2.85%
[24]
  inhibition: -2.23%
[25]
  inhibition: 10.3%
[26]
  inhibition: 5.91%
[27]
  inhibition: 3.43%
[28]
  inhibition: -5.84%
[29]
  inhibition: -2.97%
[30]
  inhibition: 5.85%
[31]
  inhibition: 8.97%
[32]
  inhibition: 20.4%
[33]
  inhibition: 8.17%
[34]
  inhibition: 6.56%
[35]
  inhibition: 93.9%
[36]
  inhibition: 20.4%
[37]
  inhibition: 5.79%
[38]
  inhibition: 5.82%
[39]
  inhibition: 23.3%
[40]
  inhibition: 1.37%
[41]
  inhibition: 3.34%
[42]
  inhibition: -7.86%
[43]
  inhibition: 6.65%
[44]
  inhibition: -0.14%
[45]
  inhibition: 9.32%
